Data as given in patent US20080171746A1, “Method for Preventing Cardiovascular Diseases” (priority 2005, published 2008).
pIC50: −log10 of the molar value.

Tests used:
PDE5A1 = target: T1, PDE5A1 (Homo sapiens, UniProt O76074); test: Inhibition of PDE5A1 activity, modified SPA (scintillation proximity assay) with recombinant enzyme; type: biochemical; conditions: for pIC50: recombinant PDE5A1, 0.5 μM cGMP substrate, read-out: Inhibition of the PDE5 activity (IC50)
T1 construct: made in house; host or cells: SF21 insect cells (baculovirus; virus made in SF9)
Source text: The PDE5A1 (GB no. AF043731) was cloned via PCR from Kidney cDNA. A 5′ fragment was amplified with OZ489 (5′-[…] -3′) and OZ 493 (5′-[…]-3′), a 3′ fragment was amplified with OZ 492 (5′-[…]-3′) and OZ 490 (5′-[…]-3′). Both fragments were cloned into pCR2.1-Topo. Primers OZ 493 and OZ 492 have a nucleotide substitution that doesn't affect the translated sequence, but introduces an EcoRI cutting site. The 2 fragments were cut out of the cloning vector with EcoRI and subcloned together in a single ligation reaction into pBP9, resulting in the construct PZ 287. […] For correct expression it was subcloned with Xmal/Sacl into pBacPak8.
The recombinant baculovirus was prepared by means of homologous recombination in SF9 insect cells. The expression plasmid was cotransfected with Bac-N-Blue (Invitrogen, Groningen, NL) or Baculo-Gold DNA (Pharmingen, Hamburg) using a standard protocol (Pharmingen, Hamburg). Wt virus-free recombinant virus supernatant was selected using plaque assay methods. After that, high-titre virus supernatant was prepared by amplifying 3 times. PDE was expressed in SF21 cells by infecting 2×10^6 cells/ml with an MOI (multiplicity of infection) between 1 and 10 in serum-free SF900 medium (Life Technologies, Paisley, UK). The cells were cultured at 28° C. for 48-72 hours, after which they were pelleted for 5-10 min at 1000 g and 4° C.
The SF21 insect cells were resuspended, at a concentration of approx. 10^7 cells/ml, in ice-cold (4° C.) homogenization buffer (20 mM Tris, pH 8.2, containing the following additions: 140 mM NaCl, 3.8 mM KCl, 1 mM EGTA, 1 mM MgCl2, 10 mM β-mercaptoethanol, 2 mM benzamidine, 0.4 mM Pefablock, 10 μM leupeptin, 10 μM pepstatin A, 5 μM trypsin inhibitor) and disrupted by ultrasonication. The homogenate was then centrifuged for 10 min at 1000× g and the supernatant was stored at −80° C. until subsequent use (see below). The protein content was determined by the Bradford method (BioRad, Munich) using BSA as the standard.
The test volume is 100 μl and contains 20 mM Tris buffer (pH 7.4), 0.1 mg of BSA (bovine serum albumin)/ml, 5 mM Mg^2+, 0.5 μM cGMP (including about 50,000 cpm of [3H]cGMP as a tracer), 1 μl of the respective substance dilution in DMSO and sufficient recombinant PDE (1000× g supernatant, see above) to ensure that 10-20% of the cGMP is converted under the said experimental conditions. […] After a preincubation of 5 min at 37° C., the reaction is started by adding the substrate (cGMP) and the assay is incubated for a further 15 min; after that, it is stopped by adding SPA beads (50 μl). In accordance with the manufacturer's instructions, the SPA beads had previously been resuspended in water, but were then diluted 1:3 (v/v) in water; the diluted solution also contains 3 mM IBMX to ensure a complete PDE activity stop. After the beads have been sedimented (>30 min), the MTP's are analyzed in commercially available luminescence detection devices. The corresponding IC50 values of the compounds for the inhibition of PDE activity are determined from the concentration-effect curves by means of non-linear regression.

[1] = system: isolated guinea pig Langendorff hearts; test: Perfused guinea-pig Langendorff heart (bolus injection into the perfusion flow)
Source text: (Modification: Bolus Injection into the Perfusion Flow)
Guinea-pigs (male, Dunkin Hartley, 400-500 g; Charles River, Sulzfeld, Germany) kept in Macrolon® cages (type IV) with free access to food (maintenance diet no. 3418, Provimi-Kliba, CH-4303 Kaiseraugst) and tap water, were killed by cervical dislocation and the thoracic cavity was opened. The heart was rapidly excised and perfused with Krebs-Henseleit solution at a constant pressure of 80 cm H2O ([…]) via retrograde cannulation of the aorta in a Langendorff apparatus. The Krebs-Henseleit solution was composed as follows (mM: NaCl 118, KCl 4.7, CaCl2 1.9, MgSO4 1.2, KH2PO4 1.2, NaHCO3 25.0, and glucose 5.0, at 37° C., gassed with 95% O2/5% CO2, v/v). Through an incision in the left atrium, a water-filled balloon catheter connected to a Statham P 23 Db pressure transducer was introduced into the left ventricle and preloaded to a pressure of […], mimicking the diastolic pressure.
Precoronary perfusate flow (CF, at an initial average passive flow of 11-13 ml/min) was measured using an electromagnetic flow meter. The change in left ventricular isovolumetric pressure amplitude (LVP) calculated by subtracting the diastolic from the systolic pressure, the rate of maximal left ventricular pressure rise (dP/dtmax), and the rate of the spontaneously beating heart (HR) were continuously recorded and monitored by a data acquisition system (Notocord, hem version 3.3; F-78290 Croissy).
Following at least 1 h of perfusion and stabilization of all cardiac parameters, the test drug is injected as 100 μl bolus within 2 s directly into the perfusion tube connected to the aortic inflow and increased threefold after the previous dose has produced its coronary dilatory response and the perfusion flow has returned to pre-drug values again. Thee drug-induced change in cardiac parameters is expressed as percentage of the initial pre-drug values.

Row | SMILES | PDE5 inhibition in vitro (result in words) (PDE5A1) | coronary heart flow [1] | pIC50 (PDE5A1) | heart rate [1] | left ventricular pressure [1]
1 | CS(=O)(=O)Nc1ccc([N+](=O)[O-])cc1Oc1ccccc1 [nimesulide] | possess PDE5 activity in the μM range | – | – | – | –
2 | CCC(=O)NS(=O)(=O)c1ccc(-c2c(-c3ccccc3)noc2C)cc1 [Parecoxib] | show no effects | substantially lack the ability to increase coronary heart flow | < 4.00 | – | –
3 | Cc1ccc(-c2ncc(Cl)cc2-c2ccc(S(C)(=O)=O)cc2)cn1 [Etorecoxib] | show no effects | substantially lack the ability to increase coronary heart flow | < 4.00 | – | –
4 | Cc1ccc(Nc2c(F)cccc2Cl)c(CC(=O)O)c1 [Lumiracoxib] | show no effects | substantially lack the ability to increase coronary heart flow | < 4.00 | – | –
5 | Cc1onc(-c2ccccc2)c1-c1ccc(S(N)(=O)=O)cc1 [Valdecoxib] | show no effects | substantially lack the ability to increase coronary heart flow | < 4.00 | – | –
6 | Cc1ccc(-c2cc(C(F)(F)F)nn2-c2ccc(S(N)(=O)=O)cc2)cc1 [Celecoxib] | – | – | – | no effect | no effect
7 | CS(=O)(=O)Nc1cc2c(cc1Sc1ccc(F)cc1F)C(=O)CC2 [L-745337] | possess PDE5 activity in the μM range | – | – | – | –
8 | CS(=O)(=O)Nc1cc2c(cc1Oc1ccc(F)cc1F)C(=O)CC2 [flosulide] | possess PDE5 activity in the μM range | – | – | – | –
9 | O=C(O)Cc1ccccc1Nc1c(Cl)cccc1Cl [Diclofenac] | show no effects | substantially lack the ability to increase coronary heart flow | < 4.00 | – | –
10 | CS(=O)(=O)c1ccc(C2=C(c3ccccc3)C(=O)OC2)cc1 [Rofecoxib] | show no effects | substantially lack the ability to increase coronary heart flow | < 4.00 | – | –
11 | CC(=O)Oc1ccccc1C(=O)O [Aspirin, acetylsalicylic acid] | show no effects | – | < 4.00 | – | –
